Reference: ChEMBL document CHEMBL4049442, “Design, Synthesis, and Biological Evaluation of Dimorpholine Substituted Thienopyrimidines as Potential Class I PI3K/mTOR Dual Inhibitors” (J Med Chem, 2017)
Activity calls are given as the source filed them. The calls are words filed in the database; no cut-off is given here.

Tests used:
[1] = molecular target: PI3-kinase p110-alpha/p85-alpha (Homo sapiens, UniProt P42336); experiment: Inhibition of full length recombinant human N-terminal His-tagged PI3K p110alpha/p85alpha expressed in baculovirus using PIP2 as substrate after 1 hr by kinase-glo luminescence assay
[2] = molecular target: Serine/threonine-protein kinase mTOR (Homo sapiens, UniProt P42345); experiment: Inhibition of recombinant human N-terminal FLAG-tagged mTOR (1362 to end residues) expressed in baculovirus infected Sf21 insect cells assessed as reduction in ULight-4E-BP1 phosphorylation after 30 mins by lance ultra assay
PC-3 = experiment: cells; details: Homo sapiens, PC-3, 72 h
LNCaP = experiment: cells; details: Homo sapiens, 72 h
U-87 MG [3] = experiment: cells; details: Homo sapiens, 72 h
SK-OV-3 [4] = experiment: cells; details: Homo sapiens, SK-OV-3, 72 h
[5] = molecular target: Phosphatidylinositol 4,5-bisphosphate 3-kinase catalytic subunit gamma isoform (Homo sapiens, UniProt P48736); experiment: Inhibition of recombinant human His-tagged PI3K p110gamma expressed in baculovirus using PIP2 as substrate after 1 hr by kinase-glo luminescence assay
[6] = molecular target: Phosphatidylinositol 4,5-bisphosphate 3-kinase catalytic subunit beta isoform (Homo sapiens, UniProt P42338); experiment: Inhibition of PI3Kbeta (unknown origin) using PIP2 as substrate after 1 hr by ADP-Glo luminescence assay
[7] = molecular target: PI3-kinase p110-delta/p85-alpha (Homo sapiens, UniProt O00329); experiment: Inhibition of recombinant full length human N-terminal His6-tagged PI3K p110delta/p85alpha expressed in baculovirus infected Sf21 cells using PIP2 as substrate after 2 hrs by kinase-glo luminescence assay
SK-OV-3 [8] = experiment: Antitumor activity against human SKOV3 cells xenografted in BALB/c nude mouse assessed as tumor growth inhibition at 30 mg/kg/day, po for 24 days measured every 3 days during compound dosing relative to control; type: functional
U-87 MG [9] = experiment: Antitumor activity against human U87MG cells xenografted in BALB/c nude mouse assessed as tumor growth inhibition at 20 mg/kg/day, po for 18 days measured every 3 days during compound dosing relative to control; type: functional; details: U-87MG ATCC

PI3-kinase p110-alpha/p85-alpha, sequence (P27986 whole entry): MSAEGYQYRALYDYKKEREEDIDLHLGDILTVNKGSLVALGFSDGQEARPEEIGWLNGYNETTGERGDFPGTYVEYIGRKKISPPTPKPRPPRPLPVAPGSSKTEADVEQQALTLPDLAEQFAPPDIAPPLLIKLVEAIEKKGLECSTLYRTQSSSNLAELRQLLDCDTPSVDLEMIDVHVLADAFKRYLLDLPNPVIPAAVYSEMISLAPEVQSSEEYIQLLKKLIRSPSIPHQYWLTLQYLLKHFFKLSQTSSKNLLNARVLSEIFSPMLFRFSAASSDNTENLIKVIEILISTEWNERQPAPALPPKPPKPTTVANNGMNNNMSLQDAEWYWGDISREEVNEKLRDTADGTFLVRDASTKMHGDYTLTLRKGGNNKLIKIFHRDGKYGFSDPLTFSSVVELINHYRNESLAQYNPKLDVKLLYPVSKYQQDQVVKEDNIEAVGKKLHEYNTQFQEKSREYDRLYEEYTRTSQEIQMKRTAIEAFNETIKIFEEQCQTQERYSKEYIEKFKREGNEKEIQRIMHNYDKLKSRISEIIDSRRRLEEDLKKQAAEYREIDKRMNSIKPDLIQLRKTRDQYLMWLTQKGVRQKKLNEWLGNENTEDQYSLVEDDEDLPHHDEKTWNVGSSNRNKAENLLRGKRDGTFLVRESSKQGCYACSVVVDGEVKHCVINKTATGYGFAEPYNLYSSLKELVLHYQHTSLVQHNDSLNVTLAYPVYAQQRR
PI3-kinase p110-alpha/p85-alpha, sequence (P42336 whole entry): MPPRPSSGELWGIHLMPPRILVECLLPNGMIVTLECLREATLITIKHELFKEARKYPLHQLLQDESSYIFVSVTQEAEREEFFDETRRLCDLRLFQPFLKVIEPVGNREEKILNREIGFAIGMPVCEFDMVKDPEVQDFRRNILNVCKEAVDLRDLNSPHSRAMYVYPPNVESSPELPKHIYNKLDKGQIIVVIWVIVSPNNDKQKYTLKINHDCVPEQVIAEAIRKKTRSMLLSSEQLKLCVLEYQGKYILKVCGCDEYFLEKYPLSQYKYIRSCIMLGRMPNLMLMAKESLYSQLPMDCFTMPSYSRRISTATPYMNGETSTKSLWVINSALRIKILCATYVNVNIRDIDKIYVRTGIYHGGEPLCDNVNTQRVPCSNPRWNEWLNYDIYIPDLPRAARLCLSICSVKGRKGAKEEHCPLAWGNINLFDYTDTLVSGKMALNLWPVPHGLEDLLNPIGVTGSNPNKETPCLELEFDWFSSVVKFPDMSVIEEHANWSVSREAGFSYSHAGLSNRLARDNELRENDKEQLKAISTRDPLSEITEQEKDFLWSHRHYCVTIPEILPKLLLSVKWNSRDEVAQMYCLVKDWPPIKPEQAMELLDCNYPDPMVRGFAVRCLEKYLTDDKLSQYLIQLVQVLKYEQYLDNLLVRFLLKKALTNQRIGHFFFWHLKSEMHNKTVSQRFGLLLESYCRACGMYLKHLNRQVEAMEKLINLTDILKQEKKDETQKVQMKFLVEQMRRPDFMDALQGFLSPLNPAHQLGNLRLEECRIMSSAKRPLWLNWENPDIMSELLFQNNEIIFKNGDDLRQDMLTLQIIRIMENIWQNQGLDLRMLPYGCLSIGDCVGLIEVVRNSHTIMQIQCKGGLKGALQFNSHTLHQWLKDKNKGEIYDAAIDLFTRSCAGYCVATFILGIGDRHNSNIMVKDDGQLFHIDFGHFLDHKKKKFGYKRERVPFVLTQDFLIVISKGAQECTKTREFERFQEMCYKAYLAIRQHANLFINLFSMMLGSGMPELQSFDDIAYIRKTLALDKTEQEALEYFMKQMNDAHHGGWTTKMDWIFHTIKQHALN
Phosphatidylinositol 4,5-bisphosphate 3-kinase catalytic subunit beta isoform, sequence (P42338 whole entry, canonical isoform): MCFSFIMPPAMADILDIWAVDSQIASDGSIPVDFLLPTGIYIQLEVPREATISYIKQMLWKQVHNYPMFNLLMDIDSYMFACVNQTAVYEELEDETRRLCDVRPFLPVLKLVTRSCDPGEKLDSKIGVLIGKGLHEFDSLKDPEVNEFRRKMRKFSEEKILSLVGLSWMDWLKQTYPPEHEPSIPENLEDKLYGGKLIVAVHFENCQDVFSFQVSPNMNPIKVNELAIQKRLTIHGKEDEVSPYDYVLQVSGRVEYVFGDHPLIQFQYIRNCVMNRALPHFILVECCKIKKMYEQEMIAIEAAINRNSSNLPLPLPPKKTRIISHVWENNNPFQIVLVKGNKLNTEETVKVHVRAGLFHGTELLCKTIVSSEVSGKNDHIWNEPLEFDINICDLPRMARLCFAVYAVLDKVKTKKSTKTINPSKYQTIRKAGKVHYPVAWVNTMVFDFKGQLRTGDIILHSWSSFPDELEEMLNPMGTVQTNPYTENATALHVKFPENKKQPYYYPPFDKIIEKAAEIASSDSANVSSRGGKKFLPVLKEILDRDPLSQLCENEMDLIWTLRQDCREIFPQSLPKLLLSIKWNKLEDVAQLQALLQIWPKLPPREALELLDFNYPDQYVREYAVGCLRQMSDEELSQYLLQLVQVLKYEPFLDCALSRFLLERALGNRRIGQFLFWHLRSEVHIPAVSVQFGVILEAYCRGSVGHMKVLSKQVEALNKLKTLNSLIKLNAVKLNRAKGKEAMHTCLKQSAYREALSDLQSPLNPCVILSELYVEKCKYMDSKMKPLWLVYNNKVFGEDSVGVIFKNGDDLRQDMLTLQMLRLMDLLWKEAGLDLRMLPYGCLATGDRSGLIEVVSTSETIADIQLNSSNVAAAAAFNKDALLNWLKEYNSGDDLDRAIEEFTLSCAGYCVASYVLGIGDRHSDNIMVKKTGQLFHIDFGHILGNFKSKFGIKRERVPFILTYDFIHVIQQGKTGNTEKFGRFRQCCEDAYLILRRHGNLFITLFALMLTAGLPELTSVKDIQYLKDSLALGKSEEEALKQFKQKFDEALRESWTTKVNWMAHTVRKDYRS
PI3-kinase p110-delta/p85-alpha, sequence (P27986 whole entry): as the sequence (P27986 whole entry) above
PI3-kinase p110-delta/p85-alpha, sequence (O00329 whole entry): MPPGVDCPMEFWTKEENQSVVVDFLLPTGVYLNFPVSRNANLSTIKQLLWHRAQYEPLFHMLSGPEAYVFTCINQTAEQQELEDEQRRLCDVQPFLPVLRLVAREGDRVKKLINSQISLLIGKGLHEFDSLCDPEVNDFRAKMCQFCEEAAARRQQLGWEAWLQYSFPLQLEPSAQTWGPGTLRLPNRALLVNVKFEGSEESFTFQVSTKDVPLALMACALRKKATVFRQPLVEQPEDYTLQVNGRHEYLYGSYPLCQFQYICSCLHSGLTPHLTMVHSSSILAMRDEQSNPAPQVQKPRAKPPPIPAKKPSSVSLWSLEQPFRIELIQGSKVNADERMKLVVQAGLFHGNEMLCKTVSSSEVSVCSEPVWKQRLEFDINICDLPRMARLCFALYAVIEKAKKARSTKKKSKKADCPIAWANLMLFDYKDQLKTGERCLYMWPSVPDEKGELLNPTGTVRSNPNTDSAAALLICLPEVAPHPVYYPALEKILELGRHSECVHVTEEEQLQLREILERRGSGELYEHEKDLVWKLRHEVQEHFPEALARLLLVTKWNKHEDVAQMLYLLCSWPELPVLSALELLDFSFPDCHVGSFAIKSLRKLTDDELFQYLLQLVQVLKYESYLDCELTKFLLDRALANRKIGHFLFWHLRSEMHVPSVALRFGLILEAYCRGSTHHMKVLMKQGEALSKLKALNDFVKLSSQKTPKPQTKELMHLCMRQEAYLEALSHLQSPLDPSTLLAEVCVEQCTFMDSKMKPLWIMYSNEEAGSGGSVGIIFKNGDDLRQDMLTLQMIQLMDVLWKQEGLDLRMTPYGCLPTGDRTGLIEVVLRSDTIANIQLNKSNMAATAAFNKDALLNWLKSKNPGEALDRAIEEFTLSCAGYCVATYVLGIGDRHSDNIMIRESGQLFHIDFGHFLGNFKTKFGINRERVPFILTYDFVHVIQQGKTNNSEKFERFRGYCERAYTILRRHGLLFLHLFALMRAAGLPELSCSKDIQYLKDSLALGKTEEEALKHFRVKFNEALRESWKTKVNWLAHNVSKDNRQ
Phosphatidylinositol 4,5-bisphosphate 3-kinase catalytic subunit gamma isoform, sequence (P48736 whole entry, canonical isoform): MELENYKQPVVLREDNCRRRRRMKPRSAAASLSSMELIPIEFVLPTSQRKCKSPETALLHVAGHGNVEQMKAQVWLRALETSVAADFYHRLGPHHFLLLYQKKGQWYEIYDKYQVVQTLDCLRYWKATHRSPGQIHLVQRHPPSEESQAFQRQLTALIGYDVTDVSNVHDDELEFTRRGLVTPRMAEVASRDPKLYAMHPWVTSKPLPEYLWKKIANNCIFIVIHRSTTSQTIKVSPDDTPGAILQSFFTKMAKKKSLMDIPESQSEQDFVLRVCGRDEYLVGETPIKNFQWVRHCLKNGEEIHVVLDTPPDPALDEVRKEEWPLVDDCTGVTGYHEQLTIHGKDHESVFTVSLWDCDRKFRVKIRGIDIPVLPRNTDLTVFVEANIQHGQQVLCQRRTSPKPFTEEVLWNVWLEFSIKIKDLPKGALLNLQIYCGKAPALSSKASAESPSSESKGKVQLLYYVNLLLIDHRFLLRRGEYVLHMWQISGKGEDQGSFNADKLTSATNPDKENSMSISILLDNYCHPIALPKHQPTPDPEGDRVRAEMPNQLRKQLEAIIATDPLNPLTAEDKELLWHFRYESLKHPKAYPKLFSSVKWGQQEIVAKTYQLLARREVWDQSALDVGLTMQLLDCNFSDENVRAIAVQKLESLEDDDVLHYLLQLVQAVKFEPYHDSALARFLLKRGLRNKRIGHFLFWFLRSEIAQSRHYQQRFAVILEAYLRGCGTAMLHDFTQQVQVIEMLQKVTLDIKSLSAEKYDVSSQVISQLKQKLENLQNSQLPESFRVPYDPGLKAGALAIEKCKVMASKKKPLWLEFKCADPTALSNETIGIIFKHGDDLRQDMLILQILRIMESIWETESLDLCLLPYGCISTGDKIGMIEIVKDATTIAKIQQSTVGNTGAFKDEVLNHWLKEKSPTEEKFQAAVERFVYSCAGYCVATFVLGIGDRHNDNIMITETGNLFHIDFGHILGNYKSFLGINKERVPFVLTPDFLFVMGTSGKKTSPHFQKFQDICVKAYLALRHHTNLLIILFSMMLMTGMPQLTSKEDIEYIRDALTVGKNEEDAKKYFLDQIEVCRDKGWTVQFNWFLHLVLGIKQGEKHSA

SMILES	IC50 [1]	IC50 [2]	IC50 (PC-3)	IC50 (LNCaP)	IC50 (U-87 MG [3])	IC50 (SK-OV-3 [4])	IC50 [5]	IC50 [6]	IC50 [7]	TGI (SK-OV-3 [8])	TGI (U-87 MG [9])
CN1CCN(c2nc(N3CCOCC3)c3sc(CO)cc3n2)CC1	1030 nM	> 2000 nM									
C[C@@H]1COCCN1c1nc(N2CCOCC2)c2sc(CO)cc2n1	299 nM	335 nM	1.32 µM	2630 nM	> 25 µM	2.17 µM					
C[C@@H]1CN(c2nc(N3CCOCC3)c3sc(-c4ccccn4)cc3n2)C[C@H](C)O1	694 nM	270 nM	2.75 µM	4430 nM	4.45 µM	0.99 µM					
C[C@@H]1CN(c2nc(N3CCOCC3)c3sc(-c4ccncc4)cc3n2)C[C@H](C)O1	> 10000 nM	> 2000 nM									
C[C@@H]1CN(c2nc(N3CCOCC3)c3sc(-c4cccnc4)cc3n2)C[C@H](C)O1	281 nM	612 nM	12.8 µM	3000 nM	> 25 µM	15.7 µM					
CS(=O)(=O)N1CCN(c2nc(N3CCOCC3)c3sc(CO)cc3n2)CC1	279 nM	> 2000 nM	15 µM	6160 nM	> 25 µM	23.3 µM					
Cc1c(-c2ccn[nH]2)sc2c(N3CCOCC3)nc(N3C[C@@H](C)O[C@@H](C)C3)nc12	197 nM	73 nM	1.74 µM	1100 nM	8.76 µM	0.83 µM					
C[C@@H]1CN(c2nc(N3CCOCC3)c3sc(-c4ccccc4)cc3n2)C[C@H](C)O1	> 10000 nM	> 2000 nM									
C[C@@H]1CN(c2nc(N3CCOCC3)c3sc(C(N)=O)cc3n2)C[C@H](C)O1	191 nM	865 nM	4.32 µM	3270 nM	> 25 µM	7.11 µM					
CS(=O)(=O)N1CCN(Cc2cc3nc(N4CCOCC4)nc(N4CCOCC4)c3s2)CC1	4820 nM	> 2000 nM									
CCC(O)c1cc2nc(N3C[C@@H](C)O[C@@H](C)C3)nc(N3CCOCC3)c2s1 (stereo not given in full)	239 nM	> 2000 nM	2.97 µM	1600 nM	> 25 µM	9.12 µM					
C[C@@H]1CN(c2nc(N3CCOCC3)c3sc(-c4ccccc4O)cc3n2)C[C@H](C)O1	> 10000 nM	225 nM	2.49 µM	2380 nM	9.88 µM	1.8 µM					
C[C@@H]1CN(c2nc(N3CCOCC3)c3sc(CO)cc3n2)C[C@H](C)O1	216 nM	463 nM	1.05 µM	1780 nM	6.59 µM	4.99 µM					
COc1ccc(-c2cc3nc(N4C[C@@H](C)O[C@@H](C)C4)nc(N4CCOCC4)c3s2)cn1	> 10000 nM	> 2000 nM									
CS(=O)(=O)N1CCN(Cc2cc3nc(-c4cccc5[nH]ncc45)nc(N4CCOCC4)c3s2)CC1										inactive	inactive
C[C@@H]1CN(c2nc(N3CCOCC3)c3sc(-c4cn[nH]c4)cc3n2)C[C@H](C)O1	995 nM	427 nM	> 25 µM	4050 nM	> 25 µM	10.1 µM					

Second part, led by results:

IC50 [1]	IC50 [2]	IC50 (PC-3)	IC50 (LNCaP)	IC50 (U-87 MG [3])	IC50 (SK-OV-3 [4])	IC50 [5]	IC50 [6]	IC50 [7]	SMILES	TGI (SK-OV-3 [8])	TGI (U-87 MG [9])
3560 nM	222 nM	5.92 µM	6770 nM	> 25 µM	21.8 µM				C[C@@H]1CN(c2nc(N3CCOCC3)c3sc(-c4ccoc4)cc3n2)C[C@H](C)O1		
1870 nM	> 2000 nM								c1cc2nc(N3CCOCC3)nc(N3CCOCC3)c2s1		
165 nM	70 nM	7 µM	1130 nM	> 25 µM	2.9 µM				C[C@@H]1CN(c2nc(N3CCOCC3)c3sc(-c4ccc(N)nc4)cc3n2)C[C@H](C)O1		
6180 nM	> 2000 nM								c1cc2c(N3CCOCC3)nc(N3CCOCC3)nc2[nH]1		
2050 nM	> 2000 nM								C[C@@H]1CN(c2nc(N3CCOCC3)c3sc(C(O)Cc4ccccc4)cc3n2)C[C@H](C)O1 (stereo not given in full)		
681 nM	336 nM	2.67 µM	1820 nM	21.2 µM	2.89 µM				OCc1cc2nc(N3CCOc4ccccc43)nc(N3CCOCC3)c2s1		
675 nM	> 2000 nM								CC(=O)c1cc2nc(N3CCOCC3)nc(N3CCOCC3)c2s1		
216 nM	> 2000 nM	6 µM	2060 nM	17.5 µM	8.24 µM				OCc1cc2nc(N3CCOCC3)nc(N3CCOCC3)c2s1		
249 nM	603 nM	2.26 µM	4200 nM	> 25 µM	2.18 µM				OCc1cc2nc(N3CCSCC3)nc(N3CCOCC3)c2s1		
237 nM	> 2000 nM	> 25 µM	23600 nM	2.44 µM	> 25 µM				O=C(O)c1cc2nc(N3CCOCC3)nc(N3CCOCC3)c2s1		
2200 nM	109 nM	> 25 µM	2640 nM	12.8 µM	5.91 µM				C[C@@H]1CN(c2nc(N3CCOCC3)c3sc(-c4ccco4)cc3n2)C[C@H](C)O1		
24 nM	424 nM	3.67 µM	4530 nM	> 25 µM	10 µM	35 nM	317 nM	171 nM	C[C@@H]1CN(c2nc(N3CCOCC3)c3sc(-c4cnc(N)nc4)cc3n2)C[C@H](C)O1		
> 10000 nM	> 2000 nM								C[C@@H]1CN(c2nc(N3CCOCC3)c3sc(-c4ccsc4)cc3n2)C[C@H](C)O1		
> 10000 nM	> 2000 nM								C[C@@H]1CN(c2nc(N3CCOCC3)c3sc(-c4cccc5[nH]ncc45)cc3n2)C[C@H](C)O1		
9470 nM	> 2000 nM								C[C@@H]1CN(c2nc(N3CCOCC3)c3sc(-c4cncnc4)cc3n2)C[C@H](C)O1		
122 nM	632 nM	1.38 µM	2590 nM	3.29 µM	1.22 µM				CC(O)c1cc2nc(N3C[C@@H](C)O[C@@H](C)C3)nc(N3CCOCC3)c2s1 (stereo not given in full)		
4950 nM	> 2000 nM								C[C@@H]1CN(c2nc(N3CCOCC3)c3sc(-c4cnn(C)c4)cc3n2)C[C@H](C)O1		
4180 nM	172 nM	3.05 µM	2390 nM	> 25 µM	18.9 µM				C[C@@H]1CN(c2nc(N3CCOCC3)c3sc(-c4ccc[nH]4)cc3n2)C[C@H](C)O1		
> 10000 nM	> 2000 nM								c1nc2c(N3CCOCC3)nc(N3CCOCC3)nc2[nH]1		
1240 nM	> 2000 nM								C[C@@H]1CN(c2nc(N3CCOCC3)c3sc(-c4ccnn4C)cc3n2)C[C@H](C)O1		
